Test results reported in publication PMC4785407, “Reduction Impairs the Antibacterial Activity but Benefits the LPS Neutralization Ability of Human Enteric Defensin 5” (Scientific Reports, 2016).
“Also recorded” adds a separate entry of the source. Read-outs that look alike come from different tables or passages of the source. Bridge positions count the residues as written; N and C are the ends. Peptide text beside a SMILES is read from it.

What was measured:
E. coli ML35 cells = assay: Membrane depolarization, flow cytometry DiBAC4(3); conditions: 6.25 μg/mL; for DP (depolarized cells): 37 °C, 1 h, DiBAC4(3) flow cytometry, representative scatter plot
bacteria = conditions: among the α defensins; cited from earlier work
Source text: Oxidized human defensin 5 (HD5OX), a 32-residue α defensin, is stored in the secretory granules of Paneth cells in the small intestine as a propeptide (E20-R94) and is processed by anionic and/or meso isoforms of trypsin during secretion or shortly thereafter at a cleavage site between R62 and A63[6]. […] We have previously prepared bioactive HD5OX using Pichia pastoris and design ... || HD5OX is an endogenous bactericidal agent.

[1] = tested on: Salmonella enterica serovar Typhimurium (ATCC 14028); assay: virtual colony count assay, S. Typhimurium; format: cell-based; conditions: for LD50 (Lethal Dose that kills 50% of bacteria) / LD90 (Lethal Dose that kills 90% of bacteria): ATCC 14028 S. Typhimurium, 1 × 10^6 CFU/mL, 10 mM sodium phosphate buffer pH 7.4, 1% TSB, 37 °C, 1 h, duplicate, repeated three times
Procedure: Figure 3 Reduction attenuates the antibacterial activity of HD5OX against Gram-negative bacteria. […] Peptides were prepared in sterile water, with the final concentrations of 0.78, 1.56, 3.13, 6.25, 12.5, and 25 μg/mL. […] Zero survival points are not plotted.

[2] = tested on: anthrax lethal factor (LF); conditions: cited from earlier work
human thioredoxin (Trx) = assay: HD5OX reduction by thioredoxin in vitro, LC-MS; format: biochemical; conditions: 30 μM HD5OX, 15 μM human Trx, 500 nM rat liver TrxR, 1 mM NADPH, 2 mM EDTA, pH 7.0, room temperature, 1 h
Procedure: (§1) A mixture of 30 μM HD5OX, 15 μM human thioredoxin (Trx, Prospec PRO569), 500 nM rat liver thioredoxin reductase (TrxR, Sigma T9698), 1 mM NADPH (Sigma N5130), and 2 mM EDTA was incubated in 100 mM sodium phosphate buffer (pH 7.0) at room temperature for 1 h. The reaction was quenched by adding 6% trifluoroacetic acid (TFA). The solution was then centrifuged (10,000 g × 10 min) at 4 °C and analyzed with an Agilent 6410 liquid chromatography-mass spectrometry (LC-MS) instrument using a linear gradient of 5–45% acetonitrile that contained 0.1% TFA.

CD4^+T cells = conditions: cited from earlier work
Source text: (§2) Human defensins are also noted for their immunoregulatory properties. […] Additionally, some defensins are able to suppress the pro-inflammatory effect of bacterial lipopolysaccharide (LPS). For example, H ...

[3] = tested on: intestinal epithelial cells; conditions: cited from earlier work
Source text: as §2

[4] = Biolayer interferometry (BLI), binding to lipid A; conditions: for Kd / Koff (dissociation rate constant) / Kon (association rate constant): BLI, 1:1 fit
Procedure: The recruitment of peptides to lipid A (Sigma L5399) was determined using Forte Bio’s “Octet Red 96” BLI (Pall Life Sciences, US). The amine-reactive second-generation (AR2G) biosensor was activated using 20 mM 1-ethyl-3-[3-dimethylaminopropy] carbodiimide hydrochloride (EDC, Sigma E1769) and 10 mM sulfo-N-hydroxysulfosuccinimide (s-NHS, Sigma 56485). Lipid A was immobilized on biosensors at the concentration of 20 μg/mL until the binding curves reached the plateau. Ethanolamine (1 M, pH 8.5) was used to quench the immobilization. Peptides were prepared in the running buffer (5 mM sodium phosphate buffer, pH 7.4), with concentrations of 200, 400, 600, 800, 1000, and 1200 nM, respectively. Association and disassociation, 5 min for each, were carried out at a shaking speed of 600 rpm. Biosensors were regenerated by 0.1 M Glycine-HCl buffer (pH 2.0). […] The binding thicknesses were processed using Fortebio Data Analysis 7.0 software, in which the methods for y-axis alignment, inter-step correction, and Savitzky-Golay filtering were specified. The equilibrium dissociation constant (KD), calculated as the ratio of the dissociation rate constant (Koff) to the association rate constant (Kon), was generated by a 1:1 fitting model. This experiment was repeated three times.
^a The binding kinetics between peptides and bacterial lipid A were determined with a biolayer interferometry (BLI). Lipid A was immobilized on AR2G biosensors at the concentration of 20 μg/mL until the binding curves reached the plateau. Peptides were prepared in the running buffer (5 mM sodium phosphate buffer, pH 7.4), with concentrations of 200, 400, 600, 800, 1000, and 1200 nM, respectively. Association and disassociation, 5 min for each, were carried out at a shaking speed of 600 rpm. The bindings were processed using Fortebio Data Analysis 7.0 software, which specifies the methods for y-axis alignment, inter-step correction, reference subtraction, and Savitzky-Golay filtering. The experiment was repeated three times.
^b Kon, the association rate constant; Koff, the dissociation rate constant; KD, the equilibrium dissociation constant; R^2, the fitting correlation coefficient. These parameters were generated by a 1:1 fitting model. KD is calculated as the ratio of Koff to Kon. […]

[5] = tested on: Enterococcus faecalis (ATCC 29212); assay: virtual colony count assay, E. faecalis; conditions: HD5OX vs HD5RED
[6] = tested on: E. coli ML35 (ATCC 43827) cells; assay: Zeta potential determination; format: cell-based
Procedure: Samples were equilibrated at 25 °C for 2 min. Zeta potential was determined using the Zetasizer Nano ZS (Malvern Instruments, UK). A total of 6 measurements of 100 runs were carried out for each sample.

[7] = Hydrophobicity of the Trx reduction product (LC-MS); format: physicochemical; conditions: linear gradient of 5–45% acetonitrile with 0.1% TFA, vs HD5OX
Procedure: as §1

[8] = tested on: E. coli ML35 (ATCC 43827) outer membrane; assay: Outer membrane penetration (NPN uptake assay); format: cell-based; conditions: 6.25 μg/mL, 10 mM sodium phosphate buffer pH 7.4, 37 °C, 1 h; vs HD5OX
Procedure: Then, an aliquot of 10 μL of NPN (Sigma 104043) was added, resulting in a final concentration of 10 μM. After excitation at 350 nm, the fluorescent intensity was measured in the range from 380-450 nm at intervals of 2 nm using a Tecan Infinite […] microplate reader.

[9] = AR2G biosensor, 5 mM sodium phosphate buffer pH 7.4, 200-1200 nM, mean ± SD from three independent assays, read-out: KD (equilibrium dissociation constant) binding to lipid A
[10] = lipid A, repeat 1th, read-out: KD
[11] = lipid A, repeat 2th, read-out: KD
[12] = lipid A, repeat 3th, read-out: KD

Row | Compound | DP (depolarized cells) (E. coli ML35 cells) | LD50 (Lethal Dose that kills 50% of bacteria) [1] | LD90 (Lethal Dose that kills 90% of bacteria) [1] | Kd [4, 9] | Koff (dissociation rate constant) ([4]; lipid A, repeat 1th) | Kon (association rate constant) ([4]; lipid A, repeat 1th) | Kd [4, 10] | Koff (dissociation rate constant) ([4]; lipid A, repeat 2th) | Kon (association rate constant) ([4]; lipid A, repeat 2th) | Kd [4, 11] | Koff (dissociation rate constant) ([4]; lipid A, repeat 3th) | Kon (association rate constant) ([4]; lipid A, repeat 3th) | Kd [4, 12] | further results
1 | CC[C@H](C)[C@@H]1NC(=O)[C@H](CCC(=O)O)NC(=O)[C@@H]2CSSC[C@@H]3NC(=O)[C@H](Cc4ccc(O)cc4)NC(=O)[C@@H](NC(=O)[C@@H](NC(=O)[C@H](C)N)[C@@H](C)O)CSSC[C@@H](C(=O)N[C@@H](CCCNC(=N)N)C(=O)O)NC(=O)[C@H](CSSC[C@H](NC(=O)[C@H](CCCNC(=N)N)NC(=O)CNC(=O)[C@H]([C@@H](C)O)NC(=O)[C@H](CCCNC(=N)N)NC3=O)C(=O)N[C@@H](C)C(=O)N[C@@H]([C@@H](C)O)C(=O)N[C@@H](CCCNC(=N)N)C(=O)N[C@@H](CCC(=O)O)C(=O)N[C@@H](CO)C(=O)N[C@@H](CC(C)C)C(=O)N[C@@H](CO)C(=O)NCC(=O)N[C@@H](C(C)C)C(=O)N2)NC(=O)[C@H](CC(C)C)NC(=O)[C@H](CCCNC(=N)N)NC(=O)[C@H](Cc2ccc(O)cc2)NC(=O)[C@H](CC(C)C)NC(=O)[C@H](CCCNC(=N)N)NC(=O)CNC(=O)[C@H](CO)NC1=O [HD5OX, Oxidized human defensin 5] (H-ATCYCRTGRCATRESLSGVCEISGRLYRLCCR-OH; disulfide 3-31, 5-20, 10-30; N-terminus and C-terminus assumed) | 31.8% | 4.6 ± 0.5 µg/mL | 9.6 ± 0.7 µg/mL | 75 ± 24 nM | 0.000324 s⁻¹ | 6320 M⁻¹ s⁻¹ | 51.3 nM | 0.000536 s⁻¹ | 5410 M⁻¹ s⁻¹ | 99.1 nM | 0.000509 s⁻¹ | 6830 M⁻¹ s⁻¹ | 74.5 nM | antibacterial activity (bacteria): widest spectrum of antibacterial activity among the α defensins; antibacterial action against S. Typhimurium, relative ([1]; virtual colony count, 0.78-25 μg/mL, HD5OX vs HD5RED): more potent action against these bacteria than HD5RED; binding and inhibition of anthrax lethal factor [2]: efficiently bind and inhibit anthrax lethal factor; reduction by Trx (human thioredoxin (Trx)): Trx catalyzed the reduction of HD5OX in vitro; IL-2 production (CD4^+T cells): can induce the production of IL-8 and IL-2; IL-8 production [3]: can induce the production of IL-8
2 | CC[C@H](C)[C@H](NC(=O)[C@H](CCC(=O)O)NC(=O)[C@H](CS)NC(=O)[C@@H](NC(=O)CNC(=O)[C@H](CO)NC(=O)[C@H](CC(C)C)NC(=O)[C@H](CO)NC(=O)[C@H](CCC(=O)O)NC(=O)[C@H](CCCNC(=N)N)NC(=O)[C@@H](NC(=O)[C@H](C)NC(=O)[C@H](CS)NC(=O)[C@H](CCCNC(=N)N)NC(=O)CNC(=O)[C@@H](NC(=O)[C@H](CCCNC(=N)N)NC(=O)[C@H](CS)NC(=O)[C@H](Cc1ccc(O)cc1)NC(=O)[C@H](CS)NC(=O)[C@@H](NC(=O)[C@H](C)N)[C@@H](C)O)[C@@H](C)O)[C@@H](C)O)C(C)C)C(=O)N[C@@H](CO)C(=O)NCC(=O)N[C@@H](CCCNC(=N)N)C(=O)N[C@@H](CC(C)C)C(=O)N[C@@H](Cc1ccc(O)cc1)C(=O)N[C@@H](CCCNC(=N)N)C(=O)N[C@@H](CC(C)C)C(=O)N[C@@H](CS)C(=O)N[C@@H](CS)C(=O)N[C@@H](CCCNC(=N)N)C(=O)O [HD5RED] (H-ATCYCRTGRCATRESLSGVCEISGRLYRLCCR-OH) | 2.04% | 7.9 ± 1.1 µg/mL | 19.5 ± 1.6 µg/mL | 140 ± 30 nM | 0.000389 s⁻¹ | 2140 M⁻¹ s⁻¹ | 182 nM | 0.000337 s⁻¹ | 2570 M⁻¹ s⁻¹ | 131 nM | 0.000264 s⁻¹ | 2250 M⁻¹ s⁻¹ | 117 nM | membrane depolarization, relative (E. coli ML35 cells; HD5RED vs HD5OX, mean of three independent experiments): less efficiency of HD5RED in inducing membrane depolarization relative to HD5OX; also recorded: significantly lower than that of HD5OX; fold of concentration needed to inactivate 90% relative to HD5OX ([1]; S. Typhimurium ATCC 14028, higher than HD5OX): 2.0 -fold; efficiency against Gram-positive E. faecalis, relative [5]: less than HD5OX; zeta potential of cells, compared with HD5OX ([6]; 12.5 and 50 μg/mL, peptide vs HD5OX): significantly less than that of cells treated with HD5OX; also recorded: less efficient in altering the bacterial surface charge than HD5OX; zeta potential of cells ([6]; E. coli ML35 cells, 10 mM sodium phosphate buffer pH 7.4, 1% TSB, 25 °C): approximately −37 mV; hydrophobicity of product [7]: increased hydrophobicity; outer membrane destruction (NPN fluorescence intensity) [8]: destroys the outer membrane less effectively than HD5OX; recruitment to lipid A ([4]; 1000 nM, 5 mM sodium phosphate buffer, HD5RED vs HD5OX): fewer HD5RED than HD5OX molecules were recruited to the lipid A; fold KD relative to HD5OX ([4]; lipid A, higher than HD5OX): 1.9 -fold
